Test results: paper PMC7132332 (Biochemistry, 2020)

Target: T1, WecA (Escherichia coli, UniProt P0AC78)
T1 sequence (P0AC78 1-367): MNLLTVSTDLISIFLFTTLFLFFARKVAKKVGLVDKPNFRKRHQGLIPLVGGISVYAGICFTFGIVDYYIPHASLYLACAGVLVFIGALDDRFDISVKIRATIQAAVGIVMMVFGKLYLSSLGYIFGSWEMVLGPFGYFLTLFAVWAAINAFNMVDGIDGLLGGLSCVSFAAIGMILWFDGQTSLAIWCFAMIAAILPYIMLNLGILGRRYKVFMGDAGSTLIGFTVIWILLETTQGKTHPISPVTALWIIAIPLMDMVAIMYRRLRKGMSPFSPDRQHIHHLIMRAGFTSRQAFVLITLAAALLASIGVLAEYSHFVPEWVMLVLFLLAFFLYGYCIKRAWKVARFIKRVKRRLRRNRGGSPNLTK
Assay: HPLC transferase assay with cell envelope fraction
Type: biochemical
Settings: 2CN- or NBD-B(4Z)P; overexpressed recombinant WecA; bicine pH 8.5, MgCl2, cholate, 37 °C

SMILES: CC(=O)N[C@H]1[C@@H](OP(=O)(O)OP(=O)(O)OC[C@H]2O[C@@H](n3ccc(=O)[nH]c3=O)[C@H](O)[C@@H]2O)O[C@H](CO)[C@@H](O)[C@@H]1O [UDP-GlcNAc]
- HPLC transferase assay with cell envelope fraction: able to convert fl-BPs with far lower concentrations of UDP-GlcNAc
